According to US8217060B2, “Benzimidazole derivatives useful as TRP M8 receptor modulators” (Janssen Pharmaceutica, NV, priority 2009, dated 2012):
Structures can show the parent of a compound that is named as a salt.

Target: T1, canine TRPM8 (Canis lupus familiaris, UniProt Q1A7N1)
T1 construct: expressed in transfected cells
Test: In Vitro Canine TRPM8 Functional Assay (icilin-induced intracellular Ca2+ fluorescence, FLIPR/FDSS)
Assay type: cell-based
Conditions: HEK293 cells stably expressing canine TRPM8; for inhibition at 0.2 µM: 0.2 μM test compound, icilin challenge; for IC50: icilin challenge (~80% maximal response), eight-point dose-response
Protocol: The functional activity of representative compounds of the formula (I) of the present invention were measured by measuring changes in intracellular calcium concentration using a Ca^2+-sensitive fluorescent dye. The changes in fluorescent signal were monitored by a fluorescence plate reader, either a FLIPR™ (Molecular Devices) or FDSS (Hamamatsu).
HEK293 cells stably expressing canine TRPM8 were routinely grown as monolayers in Dulbecco's minimum essential medium supplemented with 10% FBS, 2 mM L-glutamine, 100 units/mL penicillin, 100 ug/mL streptomycin and 400 μg/mL G418. Cells were maintained in 5% CO2 at 37° C. At 24 hrs prior to assay, cells were seeded in black wall, clear-base poly-D-lysine coated 384-well plates (BD Biosciences, NJ, USA) at a density of 5,000 cells per well in culture medium and grown overnight in 5% CO2 at 37° C. On assay day, growth media was removed and cells were loaded with Calcium 3 Dye (Molecular Devices) for 35 min at 37° C., under 5% CO2 and then for 25 min at room temperature and atmosphere. Subsequently, cells were tested for agonist-induced increases in intracellular Ca^2+ levels using FLIPR™ or FDSS. Cells were challenged with compounds of the formula (I) (at varying concentrations) and intracellular Ca^2+ was measured for 5 min prior to the addition of icilin to all wells to achieve a final concentration that produces approximately an 80% maximal response.
Basal FI was subtracted prior to normalizing data to percent of maximal response. Curves were generated using the average of quadruplicate wells for each data point, were analyzed using nonlinear regression of either sigmoidal dose response or sigmoidal dose response (variable slope). Finally, the EC50 and IC50 values were calculated with the best-fit dose curve determined by GraphPad Prism

T1 sequence (Q1A7N1 1-1104): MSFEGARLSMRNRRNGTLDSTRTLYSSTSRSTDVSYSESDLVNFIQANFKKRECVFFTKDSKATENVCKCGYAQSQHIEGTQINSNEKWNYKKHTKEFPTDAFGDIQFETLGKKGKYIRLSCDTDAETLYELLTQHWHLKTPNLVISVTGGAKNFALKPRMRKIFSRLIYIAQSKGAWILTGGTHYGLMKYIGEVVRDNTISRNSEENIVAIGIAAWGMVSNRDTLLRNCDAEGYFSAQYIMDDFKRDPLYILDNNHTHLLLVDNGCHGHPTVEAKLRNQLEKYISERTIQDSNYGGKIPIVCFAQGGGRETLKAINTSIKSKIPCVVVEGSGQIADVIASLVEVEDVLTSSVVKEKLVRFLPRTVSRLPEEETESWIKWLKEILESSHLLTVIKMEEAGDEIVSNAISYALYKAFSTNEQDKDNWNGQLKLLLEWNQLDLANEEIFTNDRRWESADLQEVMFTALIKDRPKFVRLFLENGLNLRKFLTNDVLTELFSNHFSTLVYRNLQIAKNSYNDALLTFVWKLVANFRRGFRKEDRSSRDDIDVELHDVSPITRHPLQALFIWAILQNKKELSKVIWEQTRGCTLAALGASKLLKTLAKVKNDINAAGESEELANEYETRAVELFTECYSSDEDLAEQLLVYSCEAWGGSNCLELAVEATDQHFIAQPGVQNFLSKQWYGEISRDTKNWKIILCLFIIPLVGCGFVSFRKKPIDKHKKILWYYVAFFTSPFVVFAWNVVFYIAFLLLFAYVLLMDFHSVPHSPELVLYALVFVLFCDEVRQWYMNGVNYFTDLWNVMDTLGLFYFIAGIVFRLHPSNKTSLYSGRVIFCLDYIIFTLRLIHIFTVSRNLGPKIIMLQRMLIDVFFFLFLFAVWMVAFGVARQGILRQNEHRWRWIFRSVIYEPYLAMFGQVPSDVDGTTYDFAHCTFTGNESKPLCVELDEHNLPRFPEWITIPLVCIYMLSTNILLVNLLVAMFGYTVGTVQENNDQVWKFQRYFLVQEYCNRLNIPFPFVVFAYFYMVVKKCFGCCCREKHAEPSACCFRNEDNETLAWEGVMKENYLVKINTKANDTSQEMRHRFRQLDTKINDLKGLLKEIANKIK

Row | inhibition at 0.2 µM | IC50 | Compound
1 | 101% | 3.5 nM | FC1(F)CCC(C=Cc2nc3cc(-c4ccccc4Cl)ccc3[nH]2)CC1 [Compound 38, 5-(2-Chloro-phenyl)-2-[2-(4,4-difluoro-cyclohexyl)-vinyl]-1H-benzoimidazole hydrochloride salt]
2 | 97% | 12 nM | Cc1cc(-c2ccccc2C(F)(F)F)cc2nc(/C=C/C3CCC(C)(C)CC3)[nH]c12 [Compound 63, (E)-2-[2-(4,4-Dimethyl-cyclohexyl)-vinyl]-7-methyl-5-(2-trifluoromethyl-phenyl)-1H-benzoimidazole hydrochloride]
3 | 101% | 3 nM | Fc1cccc(C(F)(F)F)c1-c1ccc2[nH]c(C=CC3CCC(F)(F)CC3)nc2c1 [Compound 42, 2-[2-(4,4-Difluoro-cyclohexyl)-vinyl]-5-(2-fluoro-6-trifluoromethyl-phenyl)-1H-benzoimidazole hydrochloride salt]
4 | 103% | 12 nM | OCc1ccccc1-c1ccc2[nH]c(/C=C/C3CCCCC3)nc2c1 [Compound 6]
5 | 101% | 5.2 nM | FC1=CCC(C=Cc2nc3cc(-c4ccccc4OC(F)(F)F)ccc3[nH]2)CC1 (centres unmarked) [Compound 32, 2-[2-(4-Fluoro-cyclohex-3-enyl)-vinyl]-5-(2-trifluoromethoxy-phenyl)-1H-benzoimidazole hydrochloride salt]
6 | 99% | 4 nM | FC1=CCC(C=Cc2nc3cc(-c4ccccc4C(F)(F)F)cc(C(F)(F)F)c3[nH]2)CC1 (centres unmarked) [Compound 46, 2-[2-(4-Fluoro-cyclohex-3-enyl)-vinyl]-7-trifluoromethyl-5-(2-trifluoromethyl-phenyl)-1H-benzoimidazole hydrochloride salt]
7 | 102% | 8 nM | Cc1cc(-c2ccccc2C(F)(F)F)cc2nc(/C=C/C3CCOCC3)[nH]c12 [Compound 53, (E)-7-Methyl-2-[2-(tetrahydro-pyran-4-yl)-vinyl]-5-(2-trifluoromethyl-phenyl)-1H-benzimidazole hydrochloride]
8 | 77% | 170 nM | CC(=O)c1ccccc1-c1ccc2[nH]c(C=CC3CCCC3)nc2c1 [Compound 29, 1-{2-[2-(2-Cyclopentyl-vinyl)-1H-benzimidazol-5-yl]-phenyl}-ethanone]
9 | 101% | 31 nM | CC1(/C=C/c2nc3cc(-c4ccccc4C(F)(F)F)ccc3[nH]2)CCOCC1 [Compound 66, (E)-2-[2-(4-Methyl-tetrahydro-pyran-4-yl)-vinyl]-5-(2-trifluoromethyl-phenyl)-1H-benzimidazole]
10 | 97% | 41 nM | CC(=O)c1ccccc1-c1ccc2[nH]c(C=CC3CCCCC3)nc2c1 [Compound 8, 1-{2-[2-(2-Cyclohexyl-vinyl)-1H-benzimidazol-5-yl]-phenyl}-ethanone]
11 | 102% | 14 nM | Fc1ccccc1-c1ccc2[nH]c(C=CC3CCCCC3)nc2c1 [Compound 16, 2-(2-Cyclohexyl-vinyl)-5-(2-fluoro-phenyl)-1H-benzimidazole]
12 | 103% | 34 nM | CC1(c2ccccc2-c2ccc3[nH]c(C=CC4CCCCC4)nc3c2)OCCO1 [Compound 7, 2-(2-Cyclohexyl-vinyl)-5-[2-(2-methyl-[1,3]dioxolan-2-yl)-phenyl]-1H-benzimidazole]
13 | 95% | 42 nM | OCc1ccccc1-c1ccc2[nH]c(C=CC3CCCC3)nc2c1 [Compound 28, {2-[2-(2-Cyclopentyl-vinyl)-1H-benzimidazol-5-yl]-phenyl}-methanol]
14 | 101% | 32 nM | COc1ccc(Cl)c(-c2ccc3[nH]c(C=CC4CCCCC4)nc3c2)c1 [Compound 18, 5-(2-Chloro-5-methoxy-phenyl)-2-(2-cyclohexyl-vinyl)-1H-benzimidazole]
15 | 101% | 5 nM | FC1=CCC(C=Cc2nc3cc(-c4ccccc4Cl)ccc3[nH]2)CC1 (centres unmarked) [Compound 34, 5-(2-Chloro-phenyl)-2-[2-(4-fluoro-cyclohex-3-enyl)-vinyl]-1H-benzoimidazole hydrochloride salt]
16 | 100% | 47 nM | N#Cc1ccccc1-c1ccc2[nH]c(C=CC3CCCC3)nc2c1 [Compound 27, 2-[2-(2-Cyclopentyl-vinyl)-1H-benzimidazol-5-yl]-benzonitrile]
17 | 96% | 55 nM | CC1(C)CCC(/C=C/c2nc3cc(-c4c(F)cccc4F)ccc3[nH]2)CC1 [Compound 65, (E)-5-(2,6-Difluoro-phenyl)-2-[2-(4,4-dimethyl-cyclohexyl)-vinyl]-1H-benzoimidazole trifluoroacetic acid salt]

Row | inhibition at 0.2 µM | IC50 | Compound
18 | 92% | 45 nM | FC(F)(F)c1cccnc1-c1ccc2[nH]c(/C=C/C3CCCCC3)nc2c1 [Compound 60, (E)-2-(2-Cyclohexyl-vinyl)-5-(3-trifluoromethyl-pyridin-2-yl)-1H-benzimidazole]
19 | 97% | 11 nM | FC(F)(F)c1ccccc1-c1ccc2[nH]c(/C=C/C34CCC(Br)(CC3)CC4)nc2c1 [Compound 70, (E)-2-[2-(4-Bromo-bicyclo[2.2.2]oct-1-yl)-vinyl]-5-(2-trifluoromethyl-phenyl)-1H-benzoimidazole]
20 | 85% | 53 nM | COc1ccc(Cl)cc1-c1ccc2[nH]c(C=CC3CCCCC3)nc2c1 [Compound 20, 5-(5-Chloro-2-methoxy-phenyl)-2-(2-cyclohexyl-vinyl)-1H-benzimidazole]
21 | 85% | 97 nM | Fc1ccccc1-c1ccc2[nH]c(C=CC3CCCC3)nc2c1 [Compound 24, 2-(2-Cyclopentyl-vinyl)-5-(2-fluoro-phenyl)-1H-benzimidazole]
22 | 95% | 2 nM | COc1cccc(OC)c1-c1ccc2[nH]c(C=CC3CCCCC3)nc2c1 [Compound 14, 2-(2-Cyclohexyl-vinyl)-5-(2,6-dimethoxy-phenyl)-1H-benzimidazole]
23 | 100% | 33 nM | FC(F)(F)Oc1ccccc1-c1ccc2nc(C=CC3CCCC3)[nH]c2c1 [Compound 26, 2-(2-Cyclopentyl-vinyl)-5-(2-trifluoromethoxy-phenyl)-1H-benzimidazole]
24 | 18% |  | Oc1cccc(-c2ccc3[nH]c(C=CC4CCCCC4)nc3c2)c1 [Compound 5, 3-[2-(2-Cyclohexyl-vinyl)-1H-benzimidazol-5-yl]-phenol]
25 | 100% | 4 nM | Cc1cccc(C)c1-c1ccc2[nH]c(C=CC3CC=C(F)CC3)nc2c1 (centres unmarked) [Compound 35, 5-(2,6-Dimethyl-phenyl)-2-[2-(4-fluoro-cyclohex-3-enyl)-vinyl]-1H-benzoimidazole hydrochloride salt]
26 | 101% | 6 nM | Fc1cccc(Cl)c1-c1ccc2[nH]c(C=CC3CCCCC3)nc2c1 [Compound 10, 5-(2-Chloro-6-fluoro-phenyl)-2-(2-cyclohexyl-vinyl)-1H-benzimidazole]
27 | 101% | 31 nM | Fc1ccc(F)c(-c2ccc3[nH]c(C=CC4CCCCC4)nc3c2)c1 [Compound 22, 2-(2-Cyclohexyl-vinyl)-5-(2,5-difluoro-phenyl)-1H-benzimidazole]
28 | 101% | 11 nM | Fc1ccc(Cl)c(-c2ccc3[nH]c(C=CC4CCCCC4)nc3c2)c1 [Compound 9, 5-(2-Chloro-5-fluoro-phenyl)-2-(2-cyclohexyl-vinyl)-1H-benzimidazole]
29 | 101% | 7 nM | COc1ccc(F)cc1-c1ccc2[nH]c(C=CC3CCC(F)(F)CC3)nc2c1 [Compound 45, 2-[2-(4,4-Difluoro-cyclohexyl)-vinyl]-5-(5-fluoro-2-methoxy-phenyl)-1H-benzoimidazole hydrochloride salt]
30 | 97% | 32 nM | Fc1cccc(F)c1-c1ccc2[nH]c(/C=C/C3CCOCC3)nc2c1 [Compound 61, (E)-5-(2,6-Difluoro-phenyl)-2[2-(tetrahydro-pyran-4-yl)-vinyl]-1H-benzoimidazole hydrochloride]
31 | 101% | 9 nM | COc1ccc(F)cc1-c1ccc2[nH]c(C=CC3CC=C(F)CC3)nc2c1 (centres unmarked) [Compound 33, 2-[2-(4-Fluoro-cyclohex-3-enyl)-vinyl]-5-(5-fluoro-2-methoxy-phenyl)-1H-benzoimidazole hydrochloride salt]
32 | 86% | 34 nM | Clc1ccc(Cl)c(-c2ccc3[nH]c(C=CC4CCCCC4)nc3c2)c1 [Compound 19, 2-(2-Cyclohexyl-vinyl)-5-(2,5-dichloro-phenyl)-1H-benzimidazole]
33 | 101% | 9 nM | Fc1ccccc1-c1ccc2[nH]c(C=CC3CCC(F)(F)CC3)nc2c1 [Compound 39, 2-[2-(4,4-Difluoro-cyclohexyl)-vinyl]-5-(2-fluoro-phenyl)-1H-benzoimidazole hydrochloride salt]
